The values that follow come from ChEMBL document CHEMBL4229553, “Design, synthesis and in vitro study of densely functionalized oxindoles as potent α-glucosidase inhibitors” (Bioorg Med Chem, 2018).

Series [1] deals with Saccharomyces cerevisiae. The series is described as follows: Competitive inhibition of yeast alpha-glucosidase assessed as Vmax for substrate at 4 uM using p-nitrophenyl-alpha-D-glucopyranoside as substrate incubated for 30 mins by Lineweaver-Burk plot method.
Another series deals with BHK-21. The series is described as follows: Cytotoxicity against BHK21 cells. To be noted: hamster. The series is classed as cell-based, Mesocricetus auratus.
The subject of series [2] is Saccharomyces cerevisiae. The series is described as follows: Competitive inhibition of yeast alpha-glucosidase assessed as Vmax for substrate at 2 uM using p-nitrophenyl-alpha-D-glucopyranoside as substrate incubated for 30 mins by Lineweaver-Burk plot method.
A further series relates to yeast alpha-glucosidase. The series is described as follows: Ratio of IC50 for BHK21 cells to IC50 for yeast alpha-glucosidase. The series is classed as toxicity. To be noted: hamster, read-out: Ratio IC50.
Series [3] relates to Saccharomyces cerevisiae. As to the kind of experiment: Competitive inhibition of yeast alpha-glucosidase assessed as apparent Km for substrate at 2 uM using p-nitrophenyl-alpha-D-glucopyranoside as substrate incubated for 30 mins by Lineweaver-Burk plot method.
Series [4] has as its system Saccharomyces cerevisiae. As to the kind of experiment: Competitive inhibition of yeast alpha-glucosidase assessed as apparent Km for substrate at 8 uM using p-nitrophenyl-alpha-D-glucopyranoside as substrate incubated for 30 mins by Lineweaver-Burk plot method.
Series [5] deals with Saccharomyces cerevisiae. As to the kind of experiment: Competitive inhibition of yeast alpha-glucosidase assessed as apparent Km for substrate at 10 uM using p-nitrophenyl-alpha-D-glucopyranoside as substrate incubated for 30 mins by Lineweaver-Burk plot method.
For series [6], the system named is Saccharomyces cerevisiae. As to the kind of experiment: Competitive inhibition of yeast alpha-glucosidase assessed as Vmax for substrate at 8 uM using p-nitrophenyl-alpha-D-glucopyranoside as substrate incubated for 30 mins by Lineweaver-Burk plot method.
The test system of series [7] is Saccharomyces cerevisiae. As to the kind of experiment: Competitive inhibition of yeast alpha-glucosidase assessed as apparent Km for substrate at 4 uM using p-nitrophenyl-alpha-D-glucopyranoside as substrate incubated for 30 mins by Lineweaver-Burk plot method.
The subject of series [8] is Saccharomyces cerevisiae. The series is described as follows: Competitive inhibition of yeast alpha-glucosidase assessed as Vmax for substrate at 10 uM using p-nitrophenyl-alpha-D-glucopyranoside as substrate incubated for 30 mins by Lineweaver-Burk plot method.
A short description of series [9]: Inhibition of yeast alpha-glucosidase using 4-nitrophenyl-alpha-D-glucopyranoside as substrate incubated for 15 mins by spectrophotometric method. Set-up: species or system Saccharomyces cerevisiae.
Series [10] relates to Saccharomyces cerevisiae. As to the kind of experiment: Competitive inhibition of yeast alpha-glucosidase assessed as Vmax for substrate at 6 uM using p-nitrophenyl-alpha-D-glucopyranoside as substrate incubated for 30 mins by Lineweaver-Burk plot method.
The test system of series [11] is Saccharomyces cerevisiae. The series is described as follows: Competitive inhibition of yeast alpha-glucosidase assessed as apparent Km for substrate at 6 uM using p-nitrophenyl-alpha-D-glucopyranoside as substrate incubated for 30 mins by Lineweaver-Burk plot method.
Series [12] can be described thus: Inhibition of yeast alpha-glucosidase using nitrophenol-D-glucopyranoside as substrate incubated for 15 mins. Set-up: species or system Saccharomyces cerevisiae.
Another series deals with Alpha glucosidase (Homo sapiens, UniProt O43451+P10253+P14410+Q2M2H8). As to the kind of experiment: Inhibition of alpha-glucosidase (unknown origin). It is filed as protein assay.

In the case of `Cc1cc(C(=O)C2C(=O)Nc3ccc(F)cc32)c(C(=O)N2CCCCC2)c(=O)[nH]1` (stereo not given), the Vmax (commonly the rate approached at saturating substrate) was determined as 40 µM/min in the series with Saccharomyces cerevisiae [1]; 41.6 µM/min in the series on Saccharomyces cerevisiae [2]; 41.6 µM/min in the series with Saccharomyces cerevisiae [6]; 40 µM/min in the series with Saccharomyces cerevisiae [8]; 40 µM/min in the series with Saccharomyces cerevisiae [10]. In addition, in the series with BHK-21, the Activity result is on record as “Non-Toxic”. Further, in the series with yeast alpha-glucosidase, the selectivity ratio was determined as 100. The Km (usually the substrate concentration at which the rate is half of its maximum) in the series with Saccharomyces cerevisiae [3] was found to be 1.64 µM; in the series on Saccharomyces cerevisiae [4] it was 2.54 µM; with Saccharomyces cerevisiae [5], 2.92 µM; in the series with Saccharomyces cerevisiae [7], 1.79 µM; with Saccharomyces cerevisiae [11], 1.8 µM. Further, the midpoint of inhibition in series [9], the IC50, lay at 0.646 µM.

With `Cc1cc(C(=O)C2C(=O)N(Cc3ccccc3)c3ccccc32)c(C(=O)N2CCCCC2)c(=O)[nH]1` (stereo not given), in series [9], the IC50 (commonly the concentration that gives 50% inhibition) was 3.01 µM.

In series [9], `Cc1cc(C(=O)C2C(=O)N(Cc3ccccc3)c3ccc(F)cc32)c(C(=O)N2CCCCC2)c(=O)[nH]1` (stereo not given) registered an IC50 of 8.21 µM.

Turning to `Cc1cc2c(c(=O)[nH]1)C(=O)OC2C1(O)C(=O)N(C)c2ccc(Br)cc21` (stereo not given), in [9], 36.1 µM corresponded to half-maximal inhibition (IC50).

`Cc1cc2c(c(=O)[nH]1)C(=O)O/C2=C/c1cc(Br)cs1` gave an IC50 in [12] of 0.24 µM.

As to `CCC1NC(CC)C(O)C(O)C1O` (stereo not given), the IC50 on Alpha glucosidase was found to be 10 µM.

Consider `Cc1cc(/C(O)=C2/C(=O)Nc3ccc(Br)cc32)c(C(=O)N2CCCCC2)c(=O)[nH]1`, for which the Activity entry with BHK-21 was “Non-Toxic”. Moreover, in the series on yeast alpha-glucosidase, the selectivity ratio was 100. Besides, in series [9], the IC50 is 2.03 µM.

Molecule `Cc1cc(C(=O)C2C(=O)N(C)c3ccc(F)cc32)c(C(=O)N2CCCCC2)c(=O)[nH]1` (stereo not given) returned an IC50 in series [9] of 10 µM.

`Cc1cc(C(=O)C2C(=O)Nc3ccccc32)c(C(=O)N2CCCCC2)c(=O)[nH]1` (stereo not given): the Activity entry in the series with BHK-21 is listed as “Non-Toxic”. Moreover, in the series with yeast alpha-glucosidase, the selectivity ratio is 100. In addition, the IC50 in series [9] was determined as 2.67 µM.

In series [9], `Cc1cc2c(c(=O)[nH]1)C(=O)OC2C1(O)C(=O)N(C)c2ccccc21` (stereo not given) returned an IC50 of 27.6 µM.

With `Cc1cc(/C(O)=C2/C(=O)N(C)c3ccc(Br)cc32)c(C(=O)N2CCCCC2)c(=O)[nH]1`, the concentration for half-maximal inhibition (IC50) in [9] is 6.41 µM.

Consider `C[C@H]1O[C@H](O[C@H]2[C@H](O)[C@@H](O)[C@@H](O[C@H]3[C@H](O)[C@@H](O)C(O)O[C@@H]3CO)O[C@@H]2CO)[C@H](O)[C@@H](O)[C@@H]1N[C@H]1C=C(CO)[C@@H](O)[C@H](O)[C@H]1O` (stereo not given in full) [ACARBOSE], for which, in series [9], the IC50 is 4.02 µM.

In the case of `Cc1cc(C(=O)C2C(=O)N(Cc3ccccc3)c3ccc(Br)cc32)c(C(=O)N2CCCCC2)c(=O)[nH]1` (stereo not given), the Activity result with BHK-21 is given as “Non-Toxic”. Besides, the selectivity ratio in the series with yeast alpha-glucosidase is 100. Also, the IC50 in series [9] came out at 2.21 µM.

On to `Cc1cc(C(=O)C2C(=O)Nc3ccccc32)c(C(=O)N2CCCC2)c(=O)[nH]1` (stereo not given), for which the Activity result in the series on BHK-21 is given as “Non-Toxic”. Besides, the selectivity ratio in the series on yeast alpha-glucosidase came to 100. For the same molecule, half-maximal inhibition in series [9] (IC50) was put at 2.61 µM.

The molecule `Cc1cc2c(c(=O)[nH]1)C(=O)OC2C1(O)C(=O)N(Cc2ccccc2)c2ccc(Br)cc21` (stereo not given) registered an IC50 in series [9] of 42.5 µM.

The molecule `Cc1cc(C(=O)C2C(=O)Nc3ccc([N+](=O)[O-])cc32)c(C(=O)N2CCCCC2)c(=O)[nH]1` (stereo not given) registered a 50% inhibitory concentration (IC50) in [9] of 4.56 µM.

`Cc1cc2c(c(=O)[nH]1)C(=O)O/C2=C1\C(=O)Nc2ccc(Br)cc21` had an IC50 in series [9] of 33 µM.

The molecule `Cc1cc(C(=O)C2C(=O)N(C)c3ccccc32)c(C(=O)N2CCCCC2)c(=O)[nH]1` (stereo not given) had an IC50 in [9] of 10.2 µM.

In turn, `Nc1ccn(C2OC(CO)[C@@H](O)[C@H]2O)c(=O)n1` (stereo not given in full) displayed an IC50 at Alpha glucosidase of 2.5 µM.

`Cc1cc2c(c(=O)[nH]1)C(=O)O/C2=C1\C(=O)Nc2ccccc21`: half-maximal inhibition in [9] (IC50) was put at 47.2 µM.
